Patent publication US5446037A, “2-[(substituted) methylene]cephalosporin sulfones as antiinflammatory, antidegenerative and antithrombin agents” (Synphar Laboratories, Inc., priority 1993, dated 1995)

target: T1, human leukocyte elastase (HLE) (Homo sapiens, UniProt P08246); assay: Human leukocyte elastase (HLE) inhibition (MeO-Suc-Ala-Ala-Pro-Val-pNA hydrolysis, absorbance at 410 nm); assay type: biochemical; settings: Table I; pH 7.6, 30° C., 10 min pre-incubation, 10% (v/v) DMSO
T1 construct: purchased Elastin products, Missouri, U.S.A
T1 sequence (P08246 30-267): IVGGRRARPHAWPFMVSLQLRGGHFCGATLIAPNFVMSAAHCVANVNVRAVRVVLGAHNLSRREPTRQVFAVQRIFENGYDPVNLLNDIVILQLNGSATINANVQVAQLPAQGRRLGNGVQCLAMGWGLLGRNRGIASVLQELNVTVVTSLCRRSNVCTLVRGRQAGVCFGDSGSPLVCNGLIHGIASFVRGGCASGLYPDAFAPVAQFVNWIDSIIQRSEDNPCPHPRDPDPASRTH
Experimental: Determining HLE Inhibitory Activity
Human leukocyte elastase (HLE) obtained from Elastin products, Missouri, U.S.A., is dissolved in 0.05M sodium acetate containing 0.4M sodium chloride (pH 5.3) and stored at -20° C. Small aliquots of these stock solutions (1 μm) are used in the HLE assays.
Buffer: 0.01M Na, K-Phosphate, 0.5M NaCl (pH 7.6)
Substrate: 0,014M Meo-Suc-Ala-Ala-Pro-Val-pNA in DMSO
Inhibitor: various concentrations in DMSO
Enzyme: stock solution noted above
The stock solution of enzyme was equilibrated to 30° C. A cuvette containing buffer and inhibitor was equilibrated to 30° C. 10 μL of enzyme solution giving a rate of 0.04-0.05 AU/min in the absence of inhibitor, was mixed into the buffer/inhibitor solution and this mixture was incubated at 30° C. for 10 minutes. After this pre-incubation substrate was added to give a final concentration of […] and a final DMSO concentration of 10% (v/v). The rate of product formation, proportional to the change in absorbance at 410 nm, was monitored for two minutes following the addition of substrate. For a typical IC50 plot the rate was determined at 5-8 inhibitor concentrations (in duplicate) spanning 10-80% inhibition (in most cases). In most cases the data could be fit by linear least-squares and the IC50 determined from this plot.

SMILES	IC50 [nM]
CO[C@H]1C(=O)N2C(C(=O)OC(C)(C)C)=C(COC(C)=O)/C(=C/c3cn(C)nn3)S(=O)(=O)[C@H]12	7.8
CO[C@H]1C(=O)N2C(C(=O)OC(C)(C)C)=C(C)/C(=C/c3cccnc3)S(=O)(=O)[C@H]12	35
CO[C@H]1C(=O)N2C(C(=O)OC(C)(C)C)=C(COC(C)=O)/C(=C/c3ccsc3)S(=O)(=O)[C@H]12	6.4
CO[C@H]1C(=O)N2C(C(=O)OC(C)(C)C)=C(C)/C(=C/c3cn(C)nn3)S(=O)(=O)[C@H]12	75
CO[C@H]1C(=O)N2C(C(=O)OC(C)(C)C)=C(COC(C)=O)/C(=C\c3ccco3)S(=O)(=O)[C@H]12 [drawing 25]	22

Second part, the compound after the results:

IC50 [nM]	SMILES
9.2	CO[C@H]1C(=O)N2C(C(=O)OC(C)(C)C)=C(COC(C)=O)/C(=C\c3cn(C)nn3)S(=O)(=O)[C@H]12
7.2	CO[C@H]1C(=O)N2C(C(=O)OC(C)(C)C)=C(COC(C)=O)/C(=C\c3cccnc3)S(=O)(=O)[C@H]12
7.2	CO[C@H]1C(=O)N2C(C(=O)OC(C)(C)C)=C(COC(C)=O)/C(=C/c3cccnc3)S(=O)(=O)[C@H]12
100	CO[C@H]1C(=O)N2C(C(=O)OC(C)(C)C)=C(C)/C(=C\c3cn(C)nn3)S(=O)(=O)[C@H]12
5.8	CO[C@H]1C(=O)N2C(C(=O)OC(C)(C)C)=C(COC(C)=O)/C(=C/c3ccccc3F)S(=O)(=O)[C@H]12 [drawing 21]
6	CO[C@H]1C(=O)N2C(C(=O)OC(C)(C)C)=C(COC(C)=O)/C(=C\c3ccccc3F)S(=O)(=O)[C@H]12 [drawing 22]
6.4	CO[C@H]1C(=O)N2C(C(=O)OC(C)(C)C)=C(COC(C)=O)/C(=C\c3ccsc3)S(=O)(=O)[C@H]12 [drawing 29]

target: T2, human plasma thrombin (Homo sapiens, UniProt P00734); assay: Inhibition of thrombin (Chromozym TH spectrophotometric end-point assay, 410 nm); assay type: biochemical; settings: Table II, pH 8.6, room temperature, 10 min pre-incubation, 30 min incubation
T2 construct: purchased Boehringer, Montreal, Canada
Experimental: Determining the Inhibition of Thrombin
Lyophilized human plasma thrombin obtained from Boehringer, Montreal, Canada was dissolved in 0.5M Na, K-phosphate buffer (pH 7.0) and stored at +4° C.
Substrate: 0.5 mM Chromozym TH (tosyl-glycyl-prolylarginine-4-nitroanilide acetate) in DMSO
Inhibitor: 10 μM dissolved in DMSO
Temperature: room temperature (approx.).
A single inhibitor concentration (10 μM) was tested using a spectrophotometric end-point assay (1 ml final volume). Enzyme activity was monitored by formation of a product that absorbed light at 410 nm and an enzyme concentration which gave a rate of 0.01-0.02 AU/min was used. Enzyme and inhibitor were pre-incubated for 10 min in the final amounts of buffer and DMSO. The reaction was then started by the addition of substrate. After 30 min incubation the reaction was terminated by the addition of 10% SDS (0.1 ml) and the absorbance measured. Enzyme blanks were run concurrently to account for any background absorbance by the compound. Inhibition was calculated by the net A410 in the presence of inhibitor compared to that in the absence of inhibitor (DMSO controls).

inhibition at 10 µM [%]	SMILES
94.7	CO[C@H]1C(=O)N2C(C(=O)OC(C)(C)C)=C(COC(C)=O)/C(=C\c3ccco3)S(=O)(=O)[C@H]12 [drawing 34]
98.9	CO[C@H]1C(=O)N2C(C(=O)OC(C)(C)C)=C(COC(C)=O)/C(=C\c3ccsc3)S(=O)(=O)[C@H]12 [drawing 35]
96.8	CO[C@H]1C(=O)N2C(C(=O)OC(C)(C)C)=C(COC(C)=O)/C(=C/c3ccccc3F)S(=O)(=O)[C@H]12 [drawing 36]
98.5	CO[C@H]1C(=O)N2C(C(=O)OC(C)(C)C)=C(COC(C)=O)/C(=C\c3ccccc3F)S(=O)(=O)[C@H]12 [drawing 37]
